Measured values from ChEMBL document CHEMBL1629559, “Real-time PCR detection of gyrA and parC mutations in Streptococcus pneumoniae” (2008).
≈ marks a conversion by molar mass, not a printed value.

What was measured:
Streptococcus pneumoniae [1] = test: Antibacterial activity against Streptococcus pneumoniae CIP104485 by agar disk diffusion method; type: functional, CIP1044
Streptococcus pneumoniae [2] = test: Antibacterial activity against Streptococcus pneumoniae R6 by agar disk diffusion method; type: functional
Streptococcus pneumoniae [3] = test: Antibacterial activity against Streptococcus pneumoniae CP1000 by agar disk diffusion method; type: functional
Streptococcus pneumoniae [4] = test: Antibacterial activity against Streptococcus pneumoniae R6 Tr6 harboring gyrA Ser81Phe mutant gene by agar disk diffusion method; type: functional
Streptococcus pneumoniae [5] = test: Antibacterial activity against Streptococcus pneumoniae U2A1686 harboring gyrA Glu85Lys mutant gene by agar disk diffusion method; type: functional
Streptococcus pneumoniae [6] = test: Antibacterial activity against Streptococcus pneumoniae U2A1050 harboring gyrA Ser81Phe mutant gene by agar disk diffusion method; type: functional
Streptococcus pneumoniae [7] = test: Antibacterial activity against Streptococcus pneumoniae U2A1051 harboring gyrA Ser81Tyr mutant gene by agar disk diffusion method; type: functional
Streptococcus pneumoniae [8] = test: Antibacterial activity against Streptococcus pneumoniae U2A1266 harboring gyrA Ser81Cys mutant gene by agar disk diffusion method; type: functional
Streptococcus pneumoniae [9] = test: Antibacterial activity against Streptococcus pneumoniae H548 clinical isolate harboring gyrA Ser81Phe mutant gene by agar disk diffusion method; type: functional
Streptococcus pneumoniae [10] = test: Antibacterial activity against Streptococcus pneumoniae R6 Tr1 harboring parC Ser79Tyr mutant gene by agar disk diffusion method; type: functional
Streptococcus pneumoniae [11] = test: Antibacterial activity against Streptococcus pneumoniae U2A1053 harboring parC Ser79Phe mutant gene by agar disk diffusion method; type: functional
Streptococcus pneumoniae [12] = test: Antibacterial activity against Streptococcus pneumoniae U2A1413 harboring parC Ser79Tyr mutant gene by agar disk diffusion method; type: functional
Streptococcus pneumoniae [13] = test: Antibacterial activity against Streptococcus pneumoniae U2A1693 harboring parC Asp83Asn mutant gene by agar disk diffusion method; type: functional
Streptococcus pneumoniae [14] = test: Antibacterial activity against Streptococcus pneumoniae U2A1411 harboring parC Asp83Gly mutant gene by agar disk diffusion method; type: functional
Streptococcus pneumoniae [15] = test: Antibacterial activity against Streptococcus pneumoniae U2A1681 harboring parC Ser79Tyr Asp83Ala mutant gene by agar disk diffusion method; type: functional
Streptococcus pneumoniae [16] = test: Antibacterial activity against Streptococcus pneumoniae R6 Tr10 harboring gyrA Ser81Tyr parC Ser79Tyr mutant gene by agar disk diffusion method; type: functional
Streptococcus pneumoniae [17] = test: Antibacterial activity against Streptococcus pneumoniae U2A1056 harboring gyrA Ser81Tyr parC Asp83His mutant gene by agar disk diffusion method; type: functional
Streptococcus pneumoniae [18] = test: Antibacterial activity against Streptococcus pneumoniae U2A1060 harboring gyrA Ser81Phe parC Asp83His mutant gene by agar disk diffusion method; type: functional
Streptococcus pneumoniae [19] = test: Antibacterial activity against Streptococcus pneumoniae U2A1414 harboring gyrA Glu85Lys parC Ser79Phe mutant gene by agar disk diffusion method; type: functional
Streptococcus pneumoniae [20] = test: Antibacterial activity against Streptococcus pneumoniae CIP104485 by agar dilution method; type: functional; details: CIP1044
Streptococcus pneumoniae [21] = test: Antibacterial activity against Streptococcus pneumoniae R6 by agar dilution method; type: functional
Streptococcus pneumoniae [22] = test: Antibacterial activity against Streptococcus pneumoniae CP1000 by agar dilution method; type: functional
Streptococcus pneumoniae [23] = test: Antibacterial activity against Streptococcus pneumoniae R6 Tr6 harboring gyrA Ser81Phe mutant gene by agar dilution method; type: functional
Streptococcus pneumoniae [24] = test: Antibacterial activity against Streptococcus pneumoniae U2A1686 harboring gyrA Glu85Lys mutant gene by agar dilution method; type: functional
Streptococcus pneumoniae [25] = test: Antibacterial activity against Streptococcus pneumoniae U2A1050 harboring gyrA Ser81Phe mutant gene by agar dilution method; type: functional
Streptococcus pneumoniae [26] = test: Antibacterial activity against Streptococcus pneumoniae U2A1051 harboring gyrA Ser81Tyr mutant gene by agar dilution method; type: functional
Streptococcus pneumoniae [27] = test: Antibacterial activity against Streptococcus pneumoniae U2A1266 harboring gyrA Ser81Cys mutant gene by agar dilution method; type: functional
Streptococcus pneumoniae [28] = test: Antibacterial activity against Streptococcus pneumoniae H548 clinical isolate harboring gyrA Ser81Phe mutant gene by agar dilution method; type: functional
Streptococcus pneumoniae [29] = test: Antibacterial activity against Streptococcus pneumoniae R6 Tr1 harboring parC Ser79Tyr mutant gene by agar dilution method; type: functional
Streptococcus pneumoniae [30] = test: Antibacterial activity against Streptococcus pneumoniae U2A1053 harboring parC Ser79Phe mutant gene by agar dilution method; type: functional
Streptococcus pneumoniae [31] = test: Antibacterial activity against Streptococcus pneumoniae U2A1413 harboring parC Ser79Tyr mutant gene by agar dilution method; type: functional
Streptococcus pneumoniae [32] = test: Antibacterial activity against Streptococcus pneumoniae U2A1693 harboring parC Asp83Asn mutant gene by agar dilution method; type: functional
Streptococcus pneumoniae [33] = test: Antibacterial activity against Streptococcus pneumoniae U2A1411 harboring parC Asp83Gly mutant gene by agar dilution method; type: functional
Streptococcus pneumoniae [34] = test: Antibacterial activity against Streptococcus pneumoniae U2A1681 harboring parC Ser79Tyr Asp83Ala mutant gene by agar dilution method; type: functional
Streptococcus pneumoniae [35] = test: Antibacterial activity against Streptococcus pneumoniae R6 Tr10 harboring gyrA Ser81Tyr parC Ser79Tyr mutant gene by agar dilution method; type: functional
Streptococcus pneumoniae [36] = test: Antibacterial activity against Streptococcus pneumoniae U2A1056 harboring gyrA Ser81Tyr parC Asp83His mutant gene by agar dilution method; type: functional
Streptococcus pneumoniae [37] = test: Antibacterial activity against Streptococcus pneumoniae U2A1060 harboring gyrA Ser81Phe parC Asp83His mutant gene by agar dilution method; type: functional
Streptococcus pneumoniae [38] = test: Antibacterial activity against Streptococcus pneumoniae U2A1414 harboring gyrA Glu85Lys parC Ser79Phe mutant gene by agar dilution method; type: functional

Q: With `CCn1cc(C(=O)O)c(=O)c2cc(F)c(N3CCNCC3)cc21` [NORFLOXACIN] as the compound, how does the “diameter of the inhibition zone (DIZ)” value (Streptococcus pneumoniae [1]) read?
A: 19 mm

Q: What about the “diameter of the inhibition zone (DIZ)” value (Streptococcus pneumoniae [2]) of the same compound?
A: 19 mm

Q: What about the “diameter of the inhibition zone (DIZ)” value (Streptococcus pneumoniae [3]) of the same compound?
A: 21 mm

Q: And the “diameter of the inhibition zone (DIZ)” value (Streptococcus pneumoniae [4])?
A: 18 mm

Q: And the “diameter of the inhibition zone (DIZ)” value (Streptococcus pneumoniae [5])?
A: 22 mm

Q: What about the “diameter of the inhibition zone (DIZ)” value (Streptococcus pneumoniae [6]) of the same compound?
A: 16 mm

Q: What about the “diameter of the inhibition zone (DIZ)” value (Streptococcus pneumoniae [7]) of the same compound?
A: 18 mm

Q: What about the “diameter of the inhibition zone (DIZ)” value (Streptococcus pneumoniae [8]) of the same compound?
A: 13 mm

Q: And the “diameter of the inhibition zone (DIZ)” value (Streptococcus pneumoniae [9])?
A: 6 mm

Q: And the “diameter of the inhibition zone (DIZ)” value (Streptococcus pneumoniae [10])?
A: 6 mm

Q: And the “diameter of the inhibition zone (DIZ)” value (Streptococcus pneumoniae [11])?
A: 6 mm

Q: What about the “diameter of the inhibition zone (DIZ)” value (Streptococcus pneumoniae [12]) of the same compound?
A: 6 mm

Q: What about the “diameter of the inhibition zone (DIZ)” value (Streptococcus pneumoniae [13]) of the same compound?
A: 6 mm

Q: And the “diameter of the inhibition zone (DIZ)” value (Streptococcus pneumoniae [14])?
A: 6 mm

Q: And the “diameter of the inhibition zone (DIZ)” value (Streptococcus pneumoniae [15])?
A: 6 mm

Q: What about the “diameter of the inhibition zone (DIZ)” value (Streptococcus pneumoniae [16]) of the same compound?
A: 6 mm

Q: And the “diameter of the inhibition zone (DIZ)” value (Streptococcus pneumoniae [17])?
A: 6 mm

Q: And the “diameter of the inhibition zone (DIZ)” value (Streptococcus pneumoniae [18])?
A: 6 mm

Q: And the “diameter of the inhibition zone (DIZ)” value (Streptococcus pneumoniae [19])?
A: 6 mm

Q: And the MIC (Streptococcus pneumoniae [20])?
A: 4 µg/mL (≈ 12.5 µM)

Q: And the MIC (Streptococcus pneumoniae [21])?
A: 4 µg/mL (≈ 12.5 µM)

Q: And the MIC (Streptococcus pneumoniae [22])?
A: 4 µg/mL (≈ 12.5 µM)

Q: What about the MIC (Streptococcus pneumoniae [23]) of the same compound?
A: 4 µg/mL (≈ 12.5 µM)

Q: And the MIC (Streptococcus pneumoniae [24])?
A: 4 µg/mL (≈ 12.5 µM)

Q: What about the MIC (Streptococcus pneumoniae [25]) of the same compound?
A: 8 µg/mL (≈ 25.1 µM)

Q: And the MIC (Streptococcus pneumoniae [26])?
A: 8 µg/mL (≈ 25.1 µM)

Q: What about the MIC (Streptococcus pneumoniae [27]) of the same compound?
A: 8 µg/mL (≈ 25.1 µM)

Q: And the MIC (Streptococcus pneumoniae [28])?
A: 32 µg/mL (≈ 100 µM)

Q: And the MIC (Streptococcus pneumoniae [29])?
A: 64 µg/mL (≈ 200 µM)

Q: What about the MIC (Streptococcus pneumoniae [30]) of the same compound?
A: 64 µg/mL (≈ 200 µM)

Q: And the MIC (Streptococcus pneumoniae [31])?
A: 32 µg/mL (≈ 100 µM)

Q: And the MIC (Streptococcus pneumoniae [32])?
A: 64 µg/mL (≈ 200 µM)

Q: What about the MIC (Streptococcus pneumoniae [33]) of the same compound?
A: 256 µg/mL (≈ 802 µM)

Q: What about the MIC (Streptococcus pneumoniae [34]) of the same compound?
A: 256 µg/mL (≈ 802 µM)

Q: And the MIC (Streptococcus pneumoniae [35])?
A: 128 µg/mL (≈ 401 µM)

Q: What about the MIC (Streptococcus pneumoniae [36]) of the same compound?
A: 128 µg/mL (≈ 401 µM)

Q: What about the MIC (Streptococcus pneumoniae [37]) of the same compound?
A: 256 µg/mL (≈ 802 µM)

Q: And the MIC (Streptococcus pneumoniae [38])?
A: 256 µg/mL (≈ 802 µM)

Q: What does the source list for `CCn1cc(C(=O)O)c(=O)c2cc(F)c(N3CCN(C)CC3)cc21` [PEFLOXACIN]?
A: diameter of the inhibition zone (DIZ) (Streptococcus pneumoniae [1]): 18 mm; diameter of the inhibition zone (DIZ) (Streptococcus pneumoniae [2]): 17 mm; diameter of the inhibition zone (DIZ) (Streptococcus pneumoniae [3]): 21 mm; diameter of the inhibition zone (DIZ) (Streptococcus pneumoniae [4]): 19 mm; diameter of the inhibition zone (DIZ) (Streptococcus pneumoniae [5]): 23 mm; diameter of the inhibition zone (DIZ) (Streptococcus pneumoniae [6]): 18 mm; diameter of the inhibition zone (DIZ) (Streptococcus pneumoniae [7]): 20 mm; diameter of the inhibition zone (DIZ) (Streptococcus pneumoniae [8]): 17 mm; diameter of the inhibition zone (DIZ) (Streptococcus pneumoniae [11]): 13 mm; diameter of the inhibition zone (DIZ) (Streptococcus pneumoniae [12]): 13 mm; MIC (Streptococcus pneumoniae [20]): 8 µg/mL (≈ 24 µM); MIC (Streptococcus pneumoniae [21]): 8 µg/mL (≈ 24 µM); MIC (Streptococcus pneumoniae [22]): 4 µg/mL (≈ 12 µM); MIC (Streptococcus pneumoniae [23]): 8 µg/mL (≈ 24 µM); MIC (Streptococcus pneumoniae [24]): 8 µg/mL (≈ 24 µM); MIC (Streptococcus pneumoniae [25]): 16 µg/mL (≈ 48 µM); MIC (Streptococcus pneumoniae [26]): 16 µg/mL (≈ 48 µM); MIC (Streptococcus pneumoniae [27]): 16 µg/mL (≈ 48 µM); MIC (Streptococcus pneumoniae [29]): 64 µg/mL (≈ 192 µM); MIC (Streptococcus pneumoniae [30]): 128 µg/mL (≈ 384 µM); MIC (Streptococcus pneumoniae [31]): 32 µg/mL (≈ 96 µM); MIC (Streptococcus pneumoniae [32]): 64 µg/mL (≈ 192 µM); MIC (Streptococcus pneumoniae [33]): 64 µg/mL (≈ 192 µM); MIC (Streptococcus pneumoniae [34]): > 128 µg/mL; MIC (Streptococcus pneumoniae [35]): > 128 µg/mL; MIC (Streptococcus pneumoniae [36]): 64 µg/mL (≈ 192 µM); MIC (Streptococcus pneumoniae [37]): 128 µg/mL (≈ 384 µM); MIC (Streptococcus pneumoniae [38]): > 128 µg/mL
